SMILES strings stand for the structures. Like-named read-outs stand apart in the source and are kept apart here.

For one assay, the system named is PC-3. Description: NCI60 one-dose screen (10 μM), Prostate Cancer. Particulars: Homo sapiens. Type of assay: cell-based.
In the next assay the test system is RXF 393. Description: NCI60 one-dose screen (10 μM), Renal Cancer. Type of assay: cell-based, human. Particulars: Homo sapiens.
The next assay has as its system MDA-MB-231/ATCC. The assay is described as follows: NCI60 one-dose screen (10 μM), Breast Cancer. In kind it is cell-based, human. Particulars: Homo sapiens.
Another assay relates to HCT-15. The assay is described as follows: NCI60 one-dose screen (10 μM), Colon Cancer. In kind it is cell-based. Particulars: Homo sapiens.
For another assay, the system named is NCI/ADR-RES. Description: NCI60 one-dose screen (10 μM), Ovarian Cancer. Type of assay: cell-based. Particulars: Homo sapiens, read-out: Growth percent rate.
A further assay concerns NCI-H226. The assay is described as follows: NCI60 one-dose screen (10 μM), Non-small Cell Lung Cancer. In kind it is cell-based. Particulars: Homo sapiens.
In the next assay the test system is COLO 205. The assay is described as follows: NCI60 one-dose screen (10 μM), Colon Cancer. In kind it is cell-based, human. Particulars: Homo sapiens.
The next assay deals with HOP-92. The assay is described as follows: NCI60 one-dose screen (10 μM), Non-small Cell Lung Cancer. In kind it is cell-based. Particulars: Homo sapiens.
The subject of the next assay is LOX IMVI. The assay is described as follows: NCI60 one-dose screen (10 μM), Melanoma. Type of assay: cell-based, human. Particulars: Homo sapiens, LOX IMVI, read-out: Growth percent rate.
The next assay relates to SK-OV-3. The assay is described as follows: NCI60 one-dose screen (10 μM), Ovarian Cancer. Particulars: Homo sapiens. Type of assay: cell-based.
Another assay relates to MDA-MB-468. Description: NCI60 one-dose screen (10 μM), Breast Cancer. Type of assay: cell-based. Particulars: Homo sapiens.
The subject of a further assay is BT-549. The assay is described as follows: NCI60 one-dose screen (10 μM), Breast Cancer. Particulars: Homo sapiens. Type of assay: cell-based.
Another assay relates to SF-539. The assay is described as follows: NCI60 one-dose screen (10 μM), CNS Cancer. In kind it is cell-based, human. Particulars: Homo sapiens.
In a further assay the test system is UO-31. Description: NCI60 one-dose screen (10 μM), Renal Cancer. In kind it is cell-based. Particulars: Homo sapiens.
The next assay has as its system HS 578T. Description: NCI60 one-dose screen (10 μM), Breast Cancer. Type of assay: cell-based. Particulars: Homo sapiens, read-out: Growth percent rate.
For another assay, the system named is OVCAR-5. Description: NCI60 one-dose screen (10 μM), Ovarian Cancer. Type of assay: cell-based. Particulars: Homo sapiens.
Another assay relates to UACC-62. The assay is described as follows: NCI60 one-dose screen (10 μM), Melanoma. Type of assay: cell-based. Particulars: Homo sapiens.
The subject of a further assay is T-47D. The assay is described as follows: NCI60 one-dose screen (10 μM), Breast Cancer. In kind it is cell-based. Particulars: Homo sapiens, T47D, read-out: Growth percent rate.
A further assay has as its system SR. Description: NCI60 one-dose screen (10 μM), Leukemia. Particulars: Homo sapiens, read-out: Growth percent rate. Type of assay: cell-based.
Setting [1] is: PC-3, read-out: Growth percent rate.
Where [2] appears, read: RXF 393, read-out: Growth percent rate.
[3] abbreviates: MDA-MB-231, read-out: Growth percent rate.
The mark [4] stands for this setting: HCT-15, read-out: Growth percent rate.
The mark [5] stands for this setting: NCI-H226, read-out: Growth percent rate.
Where [6] appears, read: COLO 205, read-out: Growth percent rate.
The mark [7] stands for this setting: HOP-92, read-out: Growth percent rate.
Where [8] appears, read: SK-OV-3, read-out: Growth percent rate.
The mark [9] stands for this setting: MDA-MB-468, read-out: Growth percent rate.
[10] abbreviates: BT-549, read-out: Growth percent rate.
Where [11] appears, read: SF-539, read-out: Growth percent rate.
[12] abbreviates: UO-31, read-out: Growth percent rate.
Setting [13] is: OVCAR-5, read-out: Growth percent rate.
Where [14] appears, read: 10 μM, UACC-62, Melanoma, read-out: Growth percent rate.
Setting [15] is: 10 μM, PC-3, Prostate Cancer, read-out: Growth percent rate.
Where [16] appears, read: 10 μM, RXF 393, Renal Cancer, read-out: Growth percent rate.
[17] abbreviates: 10 μM, MDA-MB-231/ATCC, Breast Cancer, read-out: Growth percent rate.
[18] abbreviates: 10 μM, HCT-15, Colon Cancer, read-out: Growth percent rate.
[19] abbreviates: 10 μM, COLO 205, Colon Cancer, read-out: Growth percent rate.
Where [20] appears, read: 10 μM, HOP-92, Non-small Cell Lung Cancer, read-out: Growth percent rate.
The mark [21] stands for this setting: 10 μM, SK-OV-3, Ovarian Cancer, read-out: Growth percent rate.
Setting [22] is: 10 μM, MDA-MB-468, Breast Cancer, read-out: Growth percent rate.
Where [23] appears, read: 10 μM, SF-539, CNS Cancer, read-out: Growth percent rate.
The mark [24] stands for this setting: 10 μM, UO-31, Renal Cancer, read-out: Growth percent rate.
Setting [25] is: 10 μM, OVCAR-5, Ovarian Cancer, read-out: Growth percent rate.
The mark [26] stands for this setting: UACC-62, read-out: Growth percent rate.
The mark [27] stands for this setting: 10 μM, NCI-H226, Non-small Cell Lung Cancer, read-out: Growth percent rate.
The mark [28] stands for this setting: 10 μM, BT-549, Breast Cancer, read-out: Growth percent rate.

As to `CCC12C=CCN3CC[C@@]4(c5ccc(OC)cc5N(C)[C@H]4[C@@](O)(C(=O)OC)[C@@H]1OC(C)=O)[C@@H]32` (stereo partly shown) [Compound 1, vindoline], the activity at 10 µM with PC-3 (setting [1]) came to 98.6%; in the assay on RXF 393 (setting [2]), 98%; in the assay with MDA-MB-231/ATCC (setting [3]), 113%; with HCT-15 (setting [4]), 103%; in the assay with NCI/ADR-RES, 107%; with NCI-H226 (setting [5]), 92.3%. Further, the activity at 10 µM with COLO 205 (setting [6]) stood at 111%; in the assay on HOP-92 (setting [7]) it was 109%; in the assay with LOX IMVI, 95.3%; in the assay with SK-OV-3 (setting [8]), 102%; in the assay on MDA-MB-468 (setting [9]), 134%; in the assay with BT-549 (setting [10]), 106%. Further, the activity at 10 µM was 116% in the assay on SF-539 (setting [11]), 84.6% in the assay with UO-31 (setting [12]), 98% with HS 578T (Hs-578T) and 107% with OVCAR-5 (setting [13]).
Take `CCC12C=CCN3CCC4(c5ccc(OC)cc5N(C)C4C(O)(C(=O)OC)C1OC(=O)CCCN1CCN(C)CC1)C32` (stereo not shown) [Compound 3]: the activity at 10 µM in the assay on UACC-62 (setting [14]) amounted to 83.2%; in the assay on PC-3 (setting [15]) it was 92.9%; in the assay with RXF 393 (setting [16]), 73%; with MDA-MB-231/ATCC (setting [17]), 80.4%; with HCT-15 (setting [18]) it was 91.3%; with NCI/ADR-RES (10 μM, Ovarian Cancer), 94.7%. Moreover, the activity at 10 µM in the assay on T-47D (10 μM, T-47D, Breast Cancer) is 90.9%; in the assay on COLO 205 (setting [19]) it was 90%; in the assay with HOP-92 (setting [20]) it was 80.9%; in the assay on LOX IMVI (10 μM, Melanoma), 84%; in the assay on SK-OV-3 (setting [21]), 93.3%; with MDA-MB-468 (setting [22]), 70.5%. Besides, the activity at 10 µM in the assay on SF-539 (setting [23]) worked out at 88.1%; in the assay on UO-31 (setting [24]), 75.8%; in the assay on HS 578T (10 μM, HS 578T, Breast Cancer), 78.6%; in the assay on OVCAR-5 (setting [25]), 96.4%.
Take `CCC12C=CCN3CCC4(c5ccc(OC)cc5N(C)C4C(O)(C(=O)OC)C1O)C32` (stereo not shown) [Compound 13, 17-desacetylvindoline]: the activity at 10 µM was 90.7% with UACC-62 (setting [26]); 96.5% with PC-3 (setting [1]); 104% in the assay with RXF 393 (setting [2]); 101% in the assay with MDA-MB-231/ATCC (setting [3]); 99.2% in the assay on HCT-15 (setting [4]); 99.4% in the assay on NCI/ADR-RES. The activity at 10 µM in the assay with T-47D is 108%; in the assay with NCI-H226 (setting [5]) it was 88.5%; in the assay with COLO 205 (setting [6]) it was 118%; in the assay on HOP-92 (setting [7]), 88.6%; with LOX IMVI it was 97.5%; in the assay on MDA-MB-468 (setting [9]), 92.2%. For the same compound, the activity at 10 µM with BT-549 (setting [10]) came out at 101%; in the assay on SF-539 (setting [11]), 96.6%; in the assay on UO-31 (setting [12]), 87.6%; with HS 578T (Hs-578T), 100%; in the assay on OVCAR-5 (setting [13]), 91.2%.
`CCC12C=CCN3CCC4(c5ccc(OC)cc5N(C)C4C(O)(C(=O)OC)C1OC(=O)CCCBr)C32` (stereo not shown) [Compound 14, 17-(O-4-bromobutanoyl)vindoline]: the activity at 10 µM came to 83.8% in the assay on UACC-62 (setting [14]); 79% with PC-3 (setting [15]); 99.5% in the assay with RXF 393 (setting [16]); 90.6% in the assay on MDA-MB-231/ATCC (setting [17]); 96.8% in the assay with HCT-15 (setting [18]); 89.2% in the assay on NCI/ADR-RES (10 μM, Ovarian Cancer). Moreover, the activity at 10 µM with T-47D (10 μM, T-47D, Breast Cancer) was found to be 77.2%; in the assay with NCI-H226 (setting [27]), 96%; in the assay with COLO 205 (setting [19]), 101%; in the assay with HOP-92 (setting [20]) it was 77.6%; in the assay with LOX IMVI (10 μM, Melanoma), 88.6%; with SK-OV-3 (setting [21]), 101%. Also, the activity at 10 µM amounted to 95.7% in the assay with MDA-MB-468 (setting [22]); 99.1% in the assay with BT-549 (setting [28]); 98.4% in the assay on SR (10 μM, Leukemia); 91.9% with SF-539 (setting [23]); 82.5% in the assay on UO-31 (setting [24]); 94.5% in the assay with HS 578T (10 μM, HS 578T, Breast Cancer). Further, in the assay on OVCAR-5 (setting [25]), the activity at 10 µM came to 101%.
With `CC[C@]12C=CCN3CC[C@@]4(c5ccc(OC)cc5N(C)[C@H]4[C@@](O)(C(=O)OC)[C@@H]1OC(=O)CCC(=O)N1CCN(Cc4ccc(F)cc4)CC1)[C@@H]32` [Compound 30], the activity at 10 µM in the assay on UACC-62 (setting [14]) amounted to 67.1%; with PC-3 (setting [15]) it was 44.5%; with RXF 393 (setting [16]), 60.1%; in the assay with MDA-MB-231/ATCC (setting [17]), 65.3%; in the assay with HCT-15 (setting [18]) it was 79.5%; with NCI/ADR-RES (10 μM, Ovarian Cancer) it was 65.2%. Besides, the activity at 10 µM amounted to 73.8% with T-47D (10 μM, T-47D, Breast Cancer); 69.9% with NCI-H226 (setting [27]); 66.7% with COLO 205 (setting [19]); 66.4% in the assay on HOP-92 (setting [20]); 71.8% with LOX IMVI (10 μM, Melanoma); 103% in the assay with SK-OV-3 (setting [21]). The activity at 10 µM in the assay with MDA-MB-468 (setting [22]) amounted to 1.38%; in the assay with BT-549 (setting [28]) it was 98.1%; in the assay on SR (10 μM, Leukemia), 56.4%; in the assay on SF-539 (setting [23]), 78.7%; in the assay with UO-31 (setting [24]) it was 62.3%; with HS 578T (10 μM, HS 578T, Breast Cancer), 78.5%. Moreover, the activity at 10 µM with OVCAR-5 (setting [25]) came out at 96.3%.
Turning to `CC[C@]12C=CCN3CC[C@@]4(c5ccc(OC)cc5N(C)[C@H]4[C@@](O)(C(=O)OC)[C@@H]1OC(=O)CCC(=O)N1CCN(C(=O)c4ccco4)CC1)[C@@H]32` [Compound 32], the activity at 10 µM with UACC-62 (setting [26]) is 59.5%; in the assay with PC-3 (setting [1]), 90.6%; in the assay on RXF 393 (setting [2]) it was 102%; with MDA-MB-231/ATCC (setting [3]), 91.1%; in the assay with HCT-15 (setting [4]) it was 100%; with NCI/ADR-RES, 106%. In addition, the activity at 10 µM in the assay with T-47D is 92.5%; in the assay on NCI-H226 (setting [5]) it was 115%; with COLO 205 (setting [6]), 45.8%; in the assay with HOP-92 (setting [7]), 92.4%; in the assay on LOX IMVI, 97.8%; with SK-OV-3 (setting [8]), 111%. The activity at 10 µM in the assay with MDA-MB-468 (setting [9]) was 78%; in the assay with BT-549 (setting [10]), 122%; in the assay with SR it was 117%; with SF-539 (setting [11]), 98.8%; in the assay on UO-31 (setting [12]) it was 98.8%; in the assay on HS 578T (Hs-578T), 103%. In addition, the activity at 10 µM in the assay on OVCAR-5 (setting [13]) was 105%.

The record behind these values is article PMC11277489, “Novel Piperazine Derivatives of Vindoline as Anticancer Agents” (International Journal of Molecular Sciences, 2024).
